Data on 28 compounds can be found in patent US20230117324A1, “OXAZINE MONOACYLGLYCEROL LIPASE (MAGL) INHIBITORS” (Hoffmann-La Roche Inc., priority 2018, published 2023).

SMILES strings stand for the structures.

For the assay, the target named is T1, MAGL (Homo sapiens, UniProt Q99685).
T1 sequence (Q99685 1-303): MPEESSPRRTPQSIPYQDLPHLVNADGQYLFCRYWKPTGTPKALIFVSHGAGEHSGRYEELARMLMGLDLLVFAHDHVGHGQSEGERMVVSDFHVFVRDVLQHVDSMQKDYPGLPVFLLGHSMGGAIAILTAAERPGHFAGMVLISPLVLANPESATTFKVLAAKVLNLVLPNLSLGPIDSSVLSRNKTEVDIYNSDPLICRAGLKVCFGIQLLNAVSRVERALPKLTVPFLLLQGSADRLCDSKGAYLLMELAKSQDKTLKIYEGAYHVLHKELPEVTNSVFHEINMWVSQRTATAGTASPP
In words: MAGL inhibition, 2-AG assay (hydrolysis of 2-arachidonoylglycerol, arachidonic acid by mass spectrometry). It is filed as biochemical. Conditions: 2-AG assay (footnote [b]). Put shortly:
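Hydrolysis of 8 μM 2-arachidonoylglycerol by […] was run for 30 min at RT after a 15 min compound preincubation, in Tris/EDTA/Tween buffer. Test compounds spanned […]. The product was measured by online SPE-MS/MS (transitions 303.1→259.1 and 311.1→267.0), and activity was derived from the arachidonic acid/d8-arachidonic acid signal ratio.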

In general, IC50 refers to the concentration needed to halve the response being measured. Lower therefore signals higher potency. For `O=C1CO[C@H]2CCN(C(=O)N3CC(c4ccc(N5CC(C(F)(F)F)C5)cc4)C3)C[C@H]2N1` [Example 129, (4aR,8aS)-6-(3-(4-(3-(Trifluoromethyl)azetidin-1-yl)phenyl)azetidine-1-carbonyl)hexahydro-2H-pyrido[4,3-b][1,4]oxazin-3(4H)-one], half-maximal inhibition (IC50) was put at 2 nM. For `NC(=O)c1ccccc1-c1ccc(C2CN(C(=O)N3CC[C@@H]4OCC(=O)N[C@@H]4C3)C2)cc1` [Example 130, 2-[4-[1-[(4aR,8aS)-3-Oxo-4,4a,5,7,8,8a-hexahydropyrido[4,3-b][1,4]oxazine-6-carbonyl]azetidin-3-yl]phenyl]benzamide], half-maximal inhibition (IC50) was put at 4 nM. Consider `O=C1CO[C@H]2CCN(C(=O)N3CC(c4ccc(-c5ccccc5)c(Cl)c4)C3)C[C@H]2N1` [Example 131, (4aR,8aS)-6-(3-(2-Chloro-[1,1′-biphenyl]-4-yl)azetidine-1-carbonyl)hexahydro-2H-pyrido[4,3-b][1,4]oxazin-3(4H)-one], for which the IC50 was determined as 0.4 nM.

`O=C1CO[C@H]2CCN(C(=O)N3CC(c4ccc(Br)c(Cl)c4)C3)C[C@H]2N1` [Example 132, (4aR,8aS)-6-(3-(4-Bromo-3-chlorophenyl)azetidine-1-carbonyl)hexahydro-2H-pyrido[4,3-b][1,4]oxazin-3(4H)-one] registered an IC50 of 10 nM. As for `O=C1CO[C@H]2CCN(C(=O)N3CC(c4ccc(-c5ccc(Cl)cc5F)cc4)C3)C[C@H]2N1` [Example 133, (4aR,8aS)-6-[3-[4-(4-Chloro-2-fluoro-phenyl)phenyl]azetidine-1-carbonyl]-4,4a,5,7,8,8a-hexahydropyrido[4,3-b][1,4]oxazin-3-one], inhibition was half-maximal at 0.2 nM (IC50).

Take `O=C1CO[C@H]2CCN(C(=O)N3CC(c4ccc(-c5ccc(F)cc5Cl)cc4)C3)C[C@H]2N1` [Example 134, (4aR,8aS)-6-[3-[4-(2-Chloro-4-fluoro-phenyl)phenyl]azetidine-1-carbonyl]-4,4a,5,7,8,8a-hexahydropyrido[4,3-b][1,4]oxazin-3-one]: the IC50 was 0.1 nM. Take `Cc1ccccc1-c1ccc(C2CN(C(=O)N3CC[C@@H]4OCC(=O)N[C@@H]4C3)C2)cc1` [Example 137, (4aR,8aS)-6-(3-(2′-Methyl-[1,1′-biphenyl]-4-yl)azetidine-1-carbonyl)hexahydro-2H-pyrido[4,3-b][1,4]oxazin-3(4H)-one]: the 50% inhibitory concentration (IC50) was 0.1 nM. `CC(OC1CN(c2ccc(C3CN(C(=O)N4CC[C@@H]5OCC(=O)N[C@@H]5C4)C3)cc2)C1)C(F)(F)F` (stereo partly drawn) [Example 138, (4aR,8aS)-6-(3-(4-(3-((1,1,1-Trifluoropropan-2-yl)oxy)azetidin-1-yl)phenyl)azetidine-1-carbonyl)hexahydro-2H-pyrido[4,3-b][1,4]oxazin-3(4H)-one] showed an IC50 of 1 nM. `O=C1CO[C@H]2CCN(C(=O)N3CC(c4cccc(Br)c4)C3)C[C@H]2N1` [Example 139, (4aR,8aS)-6-(3-(3-Bromophenyl)azetidine-1-carbonyl)hexahydro-2H-pyrido[4,3-b][1,4]oxazin-3(4H)-one]: half-maximal inhibition (IC50) was put at 27 nM. `CC(C)(C)c1ccc(C2CN(C(=O)N3CC[C@@H]4OCC(=O)N[C@@H]4C3)C2)cc1` [Example 140, (4aR,8aS)-6-(3-(4-(tert-Butyl)phenyl)azetidine-1-carbonyl)hexahydro-2H-pyrido[4,3-b][1,4]oxazin-3(4H)-one]: the 50% inhibitory concentration (IC50) stood at 0.6 nM. The result for `O=C1CO[C@H]2CCN(C(=O)N3CC(c4ccc(-c5ccccc5)cc4)C3)C[C@H]2N1` [Example 141, (4aR,8aS)-6-[3-(4-Phenylphenyl)azetidine-1-carbonyl]-4,4a,5,7,8,8a-hexahydropyrido[4,3-b][1,4]oxazin-3-one] reads 2 nM.

The compound `O=C1CO[C@H]2CCN(C(=O)N3CC(c4ccc(-c5ccccc5C(F)F)cc4)C3)C[C@H]2N1` [Example 142, (4aR,8aS)-6-[3-[4-[2-(Difluoromethyl)phenyl]phenyl]azetidine-1-carbonyl]-4,4a,5,7,8,8a-hexahydropyrido[4,3-b][1,4]oxazin-3-one] had an IC50 of 0.1 nM. The result for `Cc1cccc(-c2ccc(C3CN(C(=O)N4CC[C@@H]5OCC(=O)N[C@@H]5C4)C3)cc2)c1` [Example 143, (4aR,8aS)-6-(3-(3′-Methyl-[1,1′-biphenyl]-4-yl)azetidine-1-carbonyl)hexahydro-2H-pyrido[4,3-b][1,4]oxazin-3(4H)-one] reads 1 nM; that for `Cc1ccc(-c2ccc(C3CN(C(=O)N4CC[C@@H]5OCC(=O)N[C@@H]5C4)C3)cc2)cc1` [Example 144, (4aR,8aS)-6-(3-(4′-Methyl-[1,1′-biphenyl]-4-yl)azetidine-1-carbonyl)hexahydro-2H-pyrido[4,3-b][1,4]oxazin-3(4H)-one], 1 nM; that for `O=C1CO[C@H]2CCN(C(=O)N3CC(c4ccc(Cl)nc4)C3)C[C@H]2N1` [Example 145, (4aR,8aS)-6-(3-(6-Chloropyridin-3-yl)azetidine-1-carbonyl)hexahydro-2H-pyrido[4,3-b][1,4]oxazin-3(4H)-one], 4300 nM. As to `O=C1CO[C@H]2CCN(C(=O)N3CC(c4ccc(C(F)(F)F)cc4)C3)C[C@H]2N1` [Example 146, (4aR,8aS)-6-(3-(4-(Trifluoromethyl)phenyl)azetidine-1-carbonyl)hexahydro-2H-pyrido[4,3-b][1,4]oxazin-3(4H)-one], half-maximal inhibition (IC50) was put at 34 nM. Compound `CC(C)(OC1CN(c2ccc(C3CN(C(=O)N4CC[C@@H]5OCC(=O)N[C@@H]5C4)C3)cc2)C1)C(F)(F)F` [Example 147, (4aR,8aS)-6-(3-(4-(3-((1,1,1-Trifluoro-2-methylpropan-2-yl)oxy)azetidin-1-yl)phenyl)azetidine-1-carbonyl)hexahydro-2H-pyrido[4,3-b][1,4]oxazin-3(4H)-one] returned an IC50 of 1 nM.

`CC(F)(F)c1ccc(C2CN(C(=O)N3CC[C@@H]4OCC(=O)N[C@@H]4C3)C2)cc1` [Example 148, (4aR,8aS)-6-(3-(4-(1,1-Difluoroethyl)phenyl)azetidine-1-carbonyl)hexahydro-2H-pyrido[4,3-b][1,4]oxazin-3(4H)-one] returned an IC50 of 14 nM. With `CC1CN(c2ccc(C3CN(C(=O)N4CC[C@@H]5OCC(=O)N[C@@H]5C4)C3)cc2)C1` [Example 151, (4aR,8aS)-6-(3-(4-(3-Methylazetidin-1-yl)phenyl)azetidine-1-carbonyl)hexahydro-2H-pyrido[4,3-b][1,4]oxazin-3(4H)-one] the figure was 5 nM; with `CC1(C)CCN(c2ccc(C3CN(C(=O)N4CC[C@@H]5OCC(=O)N[C@@H]5C4)C3)cc2)C1` [Example 152, (4aR,8aS)-6-(3-(4-(3,3-Dimethylpyrrolidin-1-yl)phenyl)azetidine-1-carbonyl)hexahydro-2H-pyrido[4,3-b][1,4]oxazin-3(4H)-one], 0.4 nM; with `O=C1CO[C@H]2CCN(C(=O)N3CC(c4ccc(N5CC(OC(F)(F)F)C5)cc4)C3)C[C@H]2N1` [Example 153, (4aR,8aS)-6-(3-(4-(3-(Trifluoromethoxy)azetidin-1-yl)phenyl)azetidine-1-carbonyl)hexahydro-2H-pyrido[4,3-b][1,4]oxazin-3(4H)-one], 2 nM. `O=C1CO[C@H]2CCN(C(=O)N3CC(c4ccc(-c5ccc(Cl)cc5Cl)nc4)C3)C[C@H]2N1` [Example 154, (4aR,8aS)-6-(3-(6-(2,4-Dichlorophenyl)pyridin-3-yl)azetidine-1-carbonyl)hexahydro-2H-pyrido[4,3-b][1,4]oxazin-3(4H)-one] showed an IC50 of 1 nM.

`CS(=O)(=O)c1ccc(-c2ccc(C3CN(C(=O)N4CC[C@@H]5OCC(=O)N[C@@H]5C4)C3)cc2)c(Cl)c1` [Example 155] returned an IC50 of 0.8 nM. Regarding `O=C1CO[C@H]2CCN(C(=O)N3CC(c4ccc(N5CC(F)(F)C5)cc4)C3)C[C@H]2N1` [Example 156, (4aR,8aS)-6-(3-(4-(3,3-Difluoroazetidin-1-yl)phenyl)azetidine-1-carbonyl)hexahydro-2H-pyrido[4,3-b][1,4]oxazin-3(4H)-one], the IC50 is 24 nM. With `O=C1CO[C@H]2CCN(C(=O)N3CCC(c4ccc(Br)cc4)CC3)C[C@H]2N1` [Example 157, (4aR,8aS)-6-(4-(4-Bromophenyl)piperidine-1-carbonyl)hexahydro-2H-pyrido[4,3-b][1,4]oxazin-3(4H)-one] the figure was 289 nM. `O=C1CO[C@H]2CCN(C(=O)N3CC(c4ccc(OCC(F)(F)F)cc4)C3)C[C@H]2N1` [Example 158, (4aR,8aS)-6-[3-[4-(2,2,2-Trifluoroethoxy)phenyl]azetidine-1-carbonyl]-4,4a,5,7,8,8a-hexahydropyrido[4,3-b][1,4]oxazin-3-one] gave an IC50 of 7 nM. Turning to `N#Cc1cc(Cl)ccc1-c1ccc(C2CN(C(=O)N3CC[C@@H]4OCC(=O)N[C@@H]4C3)C2)cc1` [Example 159, 2-[4-[1-[(4aR,8aS)-3-Oxo-4,4a,5,7,8,8a-hexahydropyrido[4,3-b][1,4]oxazine-6-carbonyl]azetidin-3-yl]phenyl]-5-chloro-benzonitrile], the IC50 is 0.1 nM. For the compound `O=C1CO[C@H]2CCN(C(=O)N3CC(c4ccc(N5CCCC5C(F)(F)F)cc4)C3)C[C@H]2N1` (stereo partly drawn) [Example 162, (4aR,8aS)-6-(3-(4-(2-(Trifluoromethyl)pyrrolidin-1-yl)phenyl)azetidine-1-carbonyl)hexahydro-2H-pyrido[4,3-b][1,4]oxazin-3(4H)-one], the IC50 stood at 0.3 nM.
